“Also recorded” adds a separate entry of the source.
Target: T1, PSMA receptor (Homo sapiens, UniProt Q04609)
T1 construct: localises at sites that overexpress the PSMA receptor and are indicative of a cancer; from tissue; host or cells: Primary prostate cancer and metastatic lesions (lymph node, bone, prostatic bed) in living patients
Assay: Same-day (Day 0) versus next-day (Day 1) PET imaging of patients
Format: in vivo

[1] = next-day imaging, Day 1, same subject

T1 sequence (Q04609 whole entry): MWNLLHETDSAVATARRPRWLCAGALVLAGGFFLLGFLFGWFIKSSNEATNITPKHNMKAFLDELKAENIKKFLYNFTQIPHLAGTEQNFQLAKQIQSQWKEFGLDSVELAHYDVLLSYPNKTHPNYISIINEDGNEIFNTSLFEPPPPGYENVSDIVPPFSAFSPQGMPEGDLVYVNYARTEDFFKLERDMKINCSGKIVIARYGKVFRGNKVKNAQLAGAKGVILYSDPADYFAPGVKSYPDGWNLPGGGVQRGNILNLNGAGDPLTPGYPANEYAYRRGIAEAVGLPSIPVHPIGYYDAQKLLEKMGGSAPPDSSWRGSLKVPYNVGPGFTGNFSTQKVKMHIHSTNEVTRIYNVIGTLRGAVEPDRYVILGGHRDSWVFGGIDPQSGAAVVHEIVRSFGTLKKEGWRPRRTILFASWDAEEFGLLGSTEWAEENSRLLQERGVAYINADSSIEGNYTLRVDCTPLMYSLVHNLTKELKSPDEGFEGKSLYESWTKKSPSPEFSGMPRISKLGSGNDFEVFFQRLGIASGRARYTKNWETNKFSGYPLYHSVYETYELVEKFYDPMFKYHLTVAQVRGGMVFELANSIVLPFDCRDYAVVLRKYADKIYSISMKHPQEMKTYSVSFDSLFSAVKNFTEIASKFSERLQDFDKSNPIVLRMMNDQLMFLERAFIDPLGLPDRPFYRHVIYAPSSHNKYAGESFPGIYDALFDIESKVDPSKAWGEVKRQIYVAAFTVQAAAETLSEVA

Sar-bisPSMA [^64Cu-SAR-bisPSMA]
Increase of SUVmax, next-day compared to same-day imaging (FIG. 7) (Day 1 vs Day 0): more than double | SUVmax Day 1 relative to previous day (FIG. 9) (Day 1 vs same day): 4 times | Average SUVmax for the bone and pelvic lymph node lesions (FIG. 11B) (following day imaging, same patient): 20.0 | Lesion visualisation on PET (words) (next-day imaging (Day 1), FIGS. 8-12, listed as 64Cu Sar-bisPSMA): clearly identified a lesion | Lesion visualisation on PET (words) (next-day imaging (Day 1), FIGS. 8-12, listed as 64Cu-Sar-bisPSMA): identified by three readers; also recorded: more positive lesions; also recorded: only visualised with imaging on the following day; also recorded: additional positive lesions | Lesion visualisation on PET (words) (next-day imaging (Day 1), FIGS. 8-12, listed as compound of Formula (I) complexed with ^64Cu): successfully identifies a lesion | SUVmax of lesion (FIG. 9C) [1]: 17.5 | SUVmax of positive pelvic lymph node lesion (FIG. 7) [1]: 50.4 | Average SUVmax for the bone and pelvic lymph node lesions (FIG. 11A) (same day imaging, one patient): 9.8 | Lesion visualisation on PET (words) (same-day imaging (Day 0), FIGS. 8-9, listed as 64Cu Sar-bisPSMA): negative | Lesion visualisation on PET (words) (same-day imaging (Day 0), FIGS. 8-9, listed as 64Cu-Sar-bisPSMA): less apparent; also recorded: not visualised | Lesion visualisation on PET (words) (same-day imaging (Day 0), FIGS. 8-9, listed as compound of Formula (I) complexed with ^64Cu): does not clearly visualise a lesion | SUVmax of positive pelvic lymph node lesion (FIG. 7) (same-day imaging, Day 0, one subject): 20.8 | SUVmax of lesion (FIG. 9B) (same-day imaging, same subject): 4.3

Reference: patent US20260232851A1, “METHODS FOR THE DETECTION AND DIAGNOSIS OF CANCERS ASSOCIATED WITH OVEREXPRESSION OF PSMA RECEPTOR” (CLARITY PHARMACEUTICALS LIMITED, priority 2023, published 2026)
